Like-named read-outs stand apart in the source and are kept apart here.
What was measured:
[1] = system: mouse model of CFA-induced inflammatory pain; details: in vivo
[2] = mouse, in vivo
[3] = system: mouse spared nerve injury model of neuropathic pain; details: in vivo
in vivo = details: mouse, sc
mice = details: mouse, in vivo
[4] = system: rodent models of acute and inflammatory pain; details: in vivo; cited from earlier work
[5] = system: rat model of nociceptive pain; details: in vivo
[6] = system: mouse model of inflammatory pain (100% CFA); details: in vivo
[7] = system: rat model of monoarthritis induced by 50% intraplantar CFA; details: in vivo
hNav1.7 channel = hNav1.7 channel (Homo sapiens, UniProt Q15858, W1161R); assay type: cell-based
Nav1.7 = Nav1.7 (Homo sapiens, UniProt Q15858, W1161R); experiment: cell-based
Nav1.7, sequence (Q15858 whole entry W1161R, looked up): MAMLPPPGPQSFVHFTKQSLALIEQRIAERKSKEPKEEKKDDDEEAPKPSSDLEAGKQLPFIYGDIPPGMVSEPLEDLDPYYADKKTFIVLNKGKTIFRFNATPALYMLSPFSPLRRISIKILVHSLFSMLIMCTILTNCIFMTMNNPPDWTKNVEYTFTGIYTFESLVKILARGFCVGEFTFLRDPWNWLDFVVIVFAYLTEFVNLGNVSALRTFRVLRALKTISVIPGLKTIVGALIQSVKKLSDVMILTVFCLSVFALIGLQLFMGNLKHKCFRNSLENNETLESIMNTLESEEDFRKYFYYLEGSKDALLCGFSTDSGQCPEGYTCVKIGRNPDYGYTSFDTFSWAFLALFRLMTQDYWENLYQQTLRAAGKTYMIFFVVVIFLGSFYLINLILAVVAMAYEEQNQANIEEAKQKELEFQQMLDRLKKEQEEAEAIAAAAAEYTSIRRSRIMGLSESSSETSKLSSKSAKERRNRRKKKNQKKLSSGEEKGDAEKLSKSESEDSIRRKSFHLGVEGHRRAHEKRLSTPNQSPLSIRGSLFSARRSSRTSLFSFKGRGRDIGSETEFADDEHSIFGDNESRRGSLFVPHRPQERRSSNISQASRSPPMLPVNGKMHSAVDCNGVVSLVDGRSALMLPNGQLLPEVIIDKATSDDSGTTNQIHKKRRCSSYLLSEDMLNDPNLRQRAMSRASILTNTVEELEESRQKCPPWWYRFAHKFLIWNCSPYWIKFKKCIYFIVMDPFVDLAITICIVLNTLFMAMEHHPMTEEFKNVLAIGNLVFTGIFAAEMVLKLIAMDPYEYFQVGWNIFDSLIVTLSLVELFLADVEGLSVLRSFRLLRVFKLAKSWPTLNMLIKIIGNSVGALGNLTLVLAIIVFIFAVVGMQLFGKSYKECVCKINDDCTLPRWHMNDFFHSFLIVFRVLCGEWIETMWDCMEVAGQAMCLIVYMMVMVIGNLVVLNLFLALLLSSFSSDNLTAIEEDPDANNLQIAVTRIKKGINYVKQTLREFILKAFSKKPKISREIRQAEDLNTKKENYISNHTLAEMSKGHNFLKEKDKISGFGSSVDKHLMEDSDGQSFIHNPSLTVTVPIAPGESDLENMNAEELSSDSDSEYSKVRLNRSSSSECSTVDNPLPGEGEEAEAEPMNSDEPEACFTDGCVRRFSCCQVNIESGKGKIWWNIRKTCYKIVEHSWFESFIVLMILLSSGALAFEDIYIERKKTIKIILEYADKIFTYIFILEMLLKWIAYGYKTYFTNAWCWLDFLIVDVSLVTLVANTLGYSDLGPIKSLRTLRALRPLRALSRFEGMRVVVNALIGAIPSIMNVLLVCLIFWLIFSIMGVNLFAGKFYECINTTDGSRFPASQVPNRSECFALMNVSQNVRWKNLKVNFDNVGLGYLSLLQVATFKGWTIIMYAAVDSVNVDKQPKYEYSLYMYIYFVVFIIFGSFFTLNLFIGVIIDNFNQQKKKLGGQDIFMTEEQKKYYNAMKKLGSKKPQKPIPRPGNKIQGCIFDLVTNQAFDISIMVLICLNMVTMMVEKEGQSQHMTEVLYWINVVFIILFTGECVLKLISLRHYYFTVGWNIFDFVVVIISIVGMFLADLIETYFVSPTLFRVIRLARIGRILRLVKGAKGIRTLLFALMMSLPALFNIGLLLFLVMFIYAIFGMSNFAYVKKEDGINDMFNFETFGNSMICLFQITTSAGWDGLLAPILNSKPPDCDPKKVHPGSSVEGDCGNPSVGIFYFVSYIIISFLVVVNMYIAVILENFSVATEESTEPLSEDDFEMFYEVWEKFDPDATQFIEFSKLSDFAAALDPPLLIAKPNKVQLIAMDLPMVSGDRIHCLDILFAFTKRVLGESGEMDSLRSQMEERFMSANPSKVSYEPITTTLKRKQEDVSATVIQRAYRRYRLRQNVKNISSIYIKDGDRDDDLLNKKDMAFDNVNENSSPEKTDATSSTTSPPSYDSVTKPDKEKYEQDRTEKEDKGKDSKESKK

Nav1.2 = Nav1.2 (Homo sapiens, UniProt Q99250); experiment: cell-based
Nav1.2, sequence (Q99250 whole entry, looked up): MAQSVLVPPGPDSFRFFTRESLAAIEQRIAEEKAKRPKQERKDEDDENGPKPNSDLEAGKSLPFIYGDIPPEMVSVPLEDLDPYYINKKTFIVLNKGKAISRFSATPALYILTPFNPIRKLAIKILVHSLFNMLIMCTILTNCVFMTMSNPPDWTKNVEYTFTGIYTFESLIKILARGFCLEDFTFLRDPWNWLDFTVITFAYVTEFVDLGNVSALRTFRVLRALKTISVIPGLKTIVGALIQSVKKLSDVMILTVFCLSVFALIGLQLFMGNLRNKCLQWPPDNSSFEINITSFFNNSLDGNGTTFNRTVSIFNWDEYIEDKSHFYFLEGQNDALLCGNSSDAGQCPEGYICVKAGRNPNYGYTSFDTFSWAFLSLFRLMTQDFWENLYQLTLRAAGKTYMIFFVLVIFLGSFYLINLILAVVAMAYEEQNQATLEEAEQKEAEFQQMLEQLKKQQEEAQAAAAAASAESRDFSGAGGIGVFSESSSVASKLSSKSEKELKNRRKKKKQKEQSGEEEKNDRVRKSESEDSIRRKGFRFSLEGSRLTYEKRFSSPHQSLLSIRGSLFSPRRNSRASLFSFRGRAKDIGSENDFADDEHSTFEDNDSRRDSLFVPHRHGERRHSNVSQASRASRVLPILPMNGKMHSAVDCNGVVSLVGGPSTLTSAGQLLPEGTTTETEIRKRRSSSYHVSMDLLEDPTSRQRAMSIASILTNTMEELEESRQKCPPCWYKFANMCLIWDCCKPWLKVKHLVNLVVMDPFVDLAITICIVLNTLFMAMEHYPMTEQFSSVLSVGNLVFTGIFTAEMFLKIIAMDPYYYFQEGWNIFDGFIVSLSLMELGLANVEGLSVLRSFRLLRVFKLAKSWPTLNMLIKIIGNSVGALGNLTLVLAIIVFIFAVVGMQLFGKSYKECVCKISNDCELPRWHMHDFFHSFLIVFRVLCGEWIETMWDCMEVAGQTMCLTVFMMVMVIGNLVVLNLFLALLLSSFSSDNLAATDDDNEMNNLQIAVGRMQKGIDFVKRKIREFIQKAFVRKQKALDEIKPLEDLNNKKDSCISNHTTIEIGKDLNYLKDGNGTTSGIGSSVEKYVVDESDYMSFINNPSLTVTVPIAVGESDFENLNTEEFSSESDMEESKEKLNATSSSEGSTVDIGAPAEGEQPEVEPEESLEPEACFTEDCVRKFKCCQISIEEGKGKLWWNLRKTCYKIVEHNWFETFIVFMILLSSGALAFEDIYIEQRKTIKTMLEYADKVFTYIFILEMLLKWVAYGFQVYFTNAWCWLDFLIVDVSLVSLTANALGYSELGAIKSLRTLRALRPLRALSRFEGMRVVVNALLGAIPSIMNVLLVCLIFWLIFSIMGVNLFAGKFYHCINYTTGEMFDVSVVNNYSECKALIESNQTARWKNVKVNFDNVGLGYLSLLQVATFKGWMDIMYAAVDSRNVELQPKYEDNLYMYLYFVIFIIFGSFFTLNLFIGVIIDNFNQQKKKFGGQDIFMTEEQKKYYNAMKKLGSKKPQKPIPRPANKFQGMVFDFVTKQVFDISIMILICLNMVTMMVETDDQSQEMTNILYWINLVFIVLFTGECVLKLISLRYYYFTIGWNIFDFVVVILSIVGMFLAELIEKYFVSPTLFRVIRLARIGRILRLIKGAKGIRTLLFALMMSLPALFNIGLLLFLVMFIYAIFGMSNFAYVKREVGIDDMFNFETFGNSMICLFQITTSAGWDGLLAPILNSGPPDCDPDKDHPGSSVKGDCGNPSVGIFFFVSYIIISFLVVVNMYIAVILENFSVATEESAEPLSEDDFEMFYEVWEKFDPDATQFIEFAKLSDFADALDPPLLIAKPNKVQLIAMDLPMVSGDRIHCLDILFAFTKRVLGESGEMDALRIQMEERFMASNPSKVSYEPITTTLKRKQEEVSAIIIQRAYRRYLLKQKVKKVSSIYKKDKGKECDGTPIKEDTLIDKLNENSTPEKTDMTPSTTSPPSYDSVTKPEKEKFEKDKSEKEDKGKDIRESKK

SMILES: CSCC[C@@H]1NC(=O)CNC(=O)[C@H](CCC(=O)O)NC(=O)[C@@H]2CSSC[C@H](NC(=O)[C@@H](N)Cc3ccc(O)cc3)C(=O)N[C@@H](CCC(N)=O)C(=O)N[C@@H](CCCCN)C(=O)N[C@@H](Cc3c[nH]c4ccccc34)C(=O)N[C@@H](CCSC)C(=O)N[C@@H](Cc3c[nH]c4ccccc34)C(=O)N[C@@H]([C@@H](C)O)C(=O)N[C@H]3CSSC[C@H](NC(=O)[C@H](C(C)C)NC1=O)C(=O)N[C@@H](CCCNC(=N)N)C(=O)N[C@@H](CC(C)C)C(=O)N[C@@H](Cc1c[nH]c4ccccc14)C(=O)N[C@H](C(=O)N[C@@H](CCCCN)C(=O)N[C@@H](CCCCN)C(=O)N[C@@H](CCCCN)C(=O)N[C@@H](CC(C)C)C(=O)N[C@@H](Cc1c[nH]c4ccccc14)C(=O)O)CSSC[C@H](NC(=O)[C@H](CCCCN)NC(=O)[C@H](CCCNC(=N)N)NC(=O)[C@H](CCC(=O)O)NC(=O)[C@H](CO)NC(=O)[C@H](CC(=O)O)NC3=O)C(=O)N2 [ProTx-II]
- motor impairment [1]: did not produce any obvious motor impairment
- tactile threshold [1]: significantly increased
- thermal threshold [1]: significantly increased
- Est Cp [2]: BLOQ
- efficacy in tactile (Von Frey) pain assay [3]: not efficacious
- level at time molar at 48 h (in vivo; 45.6 ug/day): 50 nM
- level at time molar at 120 h (in vivo; 45.6 ug/day): 55 nM
- level at time molar at 168 h (in vivo; 45.6 ug/day): 83 nM
- level at time molar at 72 h (in vivo; 228 ug/day): 224 nM
- Behav Obs (mice): normal
- tolerability (mice): well tolerated
- efficacy in rodent models of acute and inflammatory pain [4]: non-efficacious
- AUC of gram thresholds (mean vehicle AUC subtracted), comparison between dose groups [5]: significantly different except between the 0.3 and 3 nmole doses
- paw pressure threshold vs vehicle-treated animals ([5]; sc): increased thresholds significantly
- paw pressure threshold, dose dependence ([5]; sc): dose-dependent increase
- CFA-induced tactile allodynia [6]: profound anti-allodynic effect
- tactile threshold vs vehicle injected animals [7]: significantly increased

SMILES: CC[C@H](C)[C@H](NC(=O)[C@H](CCC(N)=O)NC(=O)[C@H](Cc1ccc(O)cc1)NC(=O)[C@H](CCCCN)NC(=O)[C@@H]1CSSC[C@@H]2NC(=O)[C@H](CCC(N)=O)NC(=O)[C@H](CC(=O)O)NC(=O)[C@H](CC(N)=O)NC(=O)[C@H](CO)NC(=O)[C@@H]3CCCN3C(=O)[C@H](CC(N)=O)NC(=O)[C@@H]3CSSC[C@H](NC(=O)[C@H](C(C)C)NC(=O)[C@H](CC(C)C)NC(=O)[C@H](CCCCN)NC(=O)[C@H](CO)NC(=O)[C@H](CO)NC(=O)[C@H](CCCCN)NC(=O)[C@H](CSSC[C@H](NC(=O)[C@H](CCC(=O)O)NC(=O)[C@@H]4CCCN4C(=O)CN)C(=O)N[C@@H](CC(C)C)C(=O)N[C@@H](CCC(=O)O)C(=O)N[C@@H]([C@@H](C)CC)C(=O)N[C@@H](Cc4ccccc4)C(=O)N[C@@H](CCCCN)C(=O)N[C@@H](C)C(=O)N3)NC2=O)C(=O)N[C@@H](CO)C(=O)N[C@@H](CCCNC(=N)N)C(=O)N[C@@H](CCCCN)C(=O)N[C@@H]([C@@H](C)O)C(=O)N[C@@H](CCCNC(=N)N)C(=O)N[C@@H](Cc2c[nH]c3ccccc23)C(=O)N1)C(=O)NCC(=O)N[C@@H](CCCCN)C(=O)O [Recombinant Huwentoxin-IV]
- ratio of IC50 for Nav1.2 to IC50 for Nav1.7 (hNav1.7 channel): about 2.143

SMILES: NCC1(CC(=O)O)CCCCC1 [gabapentin]
- CFA-induced tactile allodynia ([6]; po, 150 mg/kg): reduced tactile allodynia albeit to a lesser extent than ProTx-II

SMILES: CC[C@H](C)[C@H](NC(=O)[C@H](CCC(N)=O)NC(=O)[C@H](Cc1ccc(O)cc1)NC(=O)[C@H](CCCCN)NC(=O)[C@@H]1CSSC[C@@H]2NC(=O)[C@H](CCC(N)=O)NC(=O)[C@H](CC(=O)O)NC(=O)[C@H](CC(N)=O)NC(=O)[C@H](CO)NC(=O)[C@@H]3CCCN3C(=O)[C@H](CC(N)=O)NC(=O)[C@@H]3CSSC[C@H](NC(=O)[C@H](C(C)C)NC(=O)[C@H](CC(C)C)NC(=O)[C@H](CCCCN)NC(=O)[C@H](CO)NC(=O)[C@H](CO)NC(=O)[C@H](CCCCN)NC(=O)[C@H](CSSC[C@H](NC(=O)[C@H](C)NC(=O)[C@@H]4CCCN4C(=O)CN)C(=O)N[C@@H](CC(C)C)C(=O)N[C@@H](CCC(=O)O)C(=O)N[C@@H]([C@@H](C)CC)C(=O)N[C@@H](Cc4ccccc4)C(=O)N[C@@H](CCCCN)C(=O)N[C@@H](C)C(=O)N3)NC2=O)C(=O)N[C@@H](CO)C(=O)N[C@@H](CCCNC(=N)N)C(=O)N[C@@H](CCCCN)C(=O)N[C@@H]([C@@H](C)O)C(=O)N[C@@H](CCCNC(=N)N)C(=O)N[C@@H](Cc2c[nH]c3ccccc23)C(=O)N1)C(=O)NCC(=O)N[C@@H](CCCCN)C(=O)O [NV1D82 | 243]
- IC50 (Nav1.7): 40 nM
- IC50 (Nav1.2): 50 nM
